Test results as given in patent EP4775580A1, “COMPOUND, PHARMACEUTICAL COMPOSITION COMPRISING SAME, AND USE THEREOF” (Euregen Biopharma Co., Ltd., priority 2023, dated 2025).

What was measured:
[1] = system: MV-4-11 cells; test: Antiproliferative activity, CellTiter-Glo, 7 days (Test Example 2), MV-4-11; assay type: cell-based; conditions: Homo sapiens, MV4-11, 168 h, 7 days incubation
From the text: (§1) [0134] 1. Experimental Principle: MV-4-11, Molm-13, and OCI-AML-3 cells are human hematologic tumor cell lines harboring the Menin-MLL fusion. HL-60 is a wild-type human hematologic tumor cell line without Menin-MLL fusion. […] 2. Experimental Materials: MV-4-11, Molm-13, OCI-AML-3, and HL-60 cells were all purchased from Cobioer; CellTiter-Glo® was purchased from Promega (Cat. #G7571); RPMI-1640 was purchased from Viva Cell (Cat. #C3010-0500); IMDM was purchased from Viva Cell (Cat. #C3040-0500); fetal bovine serum (FBS) was purchased from Biosera (Cat. #FB-1058/500); penicillin-streptomycin was purchased from BasalMedia (Cat. #S110JV); 0.25% Trypsin-EDTA was purchased from BasalMedia (Cat. #S310KJ); dimethyl sulfoxide (DMSO) was purchased from Sinopharm (Cat. #30072418); 96-well plates were purchased from Corning (Cat. #3610); incubator was obtained from PHCbi (Model: MCO-18AC); inverted microscope was obtained from Mingmei (Cat. #MI52-0); automated cell counter was obtained from BodBoge (Model: JSY-SC-031N); microplate reader was obtained from PerkinElmer (Model: Envision); data processing software: GraphPad Prism 8.0. 3. Experimental Methods: Four cell lines in logarithmic growth phase were resuspended in their respective growth media (MV-4-11: IMDM + 20% FBS; Molm-13: RPMI-1640 + 20% FBS; OCI-AML-3: RPMI-1640 + 20% FBS; HL-60: RPMI-1640 + 10% FBS) and diluted to target densities (12,500, 6,250, 12,500, and 12,500/mL, respectively). The cell suspensions were seeded into 96-well plates at 80 µL per well and incubated overnight at 37°C in a 5% CO2 incubator. Culture medium served as the background control. Test compounds were dissolved in DMSO to prepare 10 mmol/L stock solutions. The stock solutions were first diluted to 2 mmol/L with DMSO, followed by 4-fold serial dilutions to generate 10 concentrations. From each concentration, 2 µL was diluted with 78 µL growth medium. […] After incubation at room temperature for 10 minutes, luminescence values were read using the EnVision microplate reader, and IC50 values were calculated using GraphPad Prism 8.0 software. […]

[2] = system: HL-60 cells; test: Antiproliferative activity, CellTiter-Glo, 7 days (Test Example 2), HL-60; assay type: cell-based; conditions: Homo sapiens, 168 h, HL-60 cells (no Menin-MLL fusion), 7 days incubation
From the text: as §1

[3] = biological target: T1, wild-type Menin protein (Menin-WT) (Homo sapiens, UniProt O00255); test: Fluorescence polarization assay of Menin binding to MLL peptide, wild type; conditions: FP, 8 nM Menin, 4 nM MLL peptide
T1 sequence (O00255 1-615 isoform O00255-1): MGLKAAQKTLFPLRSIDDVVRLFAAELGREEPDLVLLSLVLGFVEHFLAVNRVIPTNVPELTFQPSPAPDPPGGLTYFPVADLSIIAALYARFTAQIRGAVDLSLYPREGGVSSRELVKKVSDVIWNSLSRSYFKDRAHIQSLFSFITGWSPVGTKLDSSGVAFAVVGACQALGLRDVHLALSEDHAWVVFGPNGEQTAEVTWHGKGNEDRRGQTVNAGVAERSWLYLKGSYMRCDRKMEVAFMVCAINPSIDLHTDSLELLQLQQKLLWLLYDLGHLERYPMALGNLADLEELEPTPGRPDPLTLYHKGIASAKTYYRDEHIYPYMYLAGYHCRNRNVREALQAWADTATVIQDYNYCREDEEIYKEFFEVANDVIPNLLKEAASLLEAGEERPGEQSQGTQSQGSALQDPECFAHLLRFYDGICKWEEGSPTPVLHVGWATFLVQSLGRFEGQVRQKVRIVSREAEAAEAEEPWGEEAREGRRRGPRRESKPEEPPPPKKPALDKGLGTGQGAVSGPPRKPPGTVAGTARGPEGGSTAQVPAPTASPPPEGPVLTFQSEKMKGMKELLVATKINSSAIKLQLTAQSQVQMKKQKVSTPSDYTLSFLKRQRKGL
From the text: • 1. Objective: To evaluate the inhibitory activity of compounds against wild-type Menin protein (Menin-WT) and its mutant variants (Menin-M327V, Menin-M327I, Menin-T349M, Menin-S160T, Menin-S160C, Menin-G331R, and Menin-G331D). • 2. Experimental Principle: The experiment employed fluorescence polarization (FP) to detect the binding of wild-type Menin protein and its mutant variants to MLL peptide. In the absence of inhibitors, binding of wild-type Menin protein and its mutant variants to MLL peptide generates a high FP signal; upon addition of inhibitors, the binding between Menin proteins and MLL peptide is disrupted, resulting in a low FP signal. • 3. Experimental Materials: Final concentration of wild-type Menin protein and its mutant variants: 8 nM; final concentration of MLL peptide: 4 nM. Assay buffer: 50 mM Tris-HCl (pH 8.0), 120 mM NaCl, 0.005% CA-630, 2 mM DTT. • 4. […] The plate was centrifuged at 1000 rpm for 60 seconds. Subsequently, 10 µL of MLL peptide was added to each assay well. The plate was centrifuged at 1000 rpm for 60 seconds and sealed with a sealing membrane. After incubation at 23°C for 60 minutes, the plate was read using a PerkinElmer Envision reader. Data Analysis: [formula]
Curve fitting: XLFIT software was used for curve fitting, employing a four-parameter logistic model with percent inhibition versus log(compound concentration) as variables.

Compound	IC50 [1] [nM]	IC50 [2] [nM]	IC50 [3] [nM]
CCN(C(=O)c1cc(F)ccc1N1CCN([C@@H]2CCN([C@H](CCCN(C)CCOC)C(C)C)C2)c2ncncc21)C(C)C [Example 3]	10.1	> 10000	13
CCN(C(=O)c1cc(F)ccc1Oc1cncnc1N1CC2(CCN(C[C@H]3CC[C@H](NS(=O)(=O)CC)CC3)CC2)C1)C(C)C [SNDX-5613, revumenib]	14.4	> 10000	17.6
